Data as given in the NIST ThermoML archive (doi:10.1021/je7006956).
Numbers after ± are expanded uncertainties.

Columns and labels:
[1] = for mass density: 101.33 kPa, Pycnometric method; for mass density / viscosity: Liquid
[2] = cn = amount concentration of the nth substance listed, in mol/dm3; settings: 101 kPa, Liquid, Pycnometric method

C[S+](C)[O-] [dimethyl sulfoxide]
[1]
Settings	mass density [kg/m3]	viscosity [mPa·s]
298.15 K	1094.75 ± 2.6	1.993 ± 0.096
303.15 K	1090.76 ± 2.6	1.801 ± 0.088
308.15 K	1086.06 ± 2.6	1.652 ± 0.081
313.15 K	1080.45 ± 2.6	1.516 ± 0.075
318.15 K	1075.26 ± 2.6	1.398 ± 0.07

O=C(c1ccccc1)N(O)c1ccccc1 [N-phenylbenzohydroxamic acid] + C[S+](C)[O-]
mass density [kg/m3], [2]
Settings	c1 = 0.0469	c1 = 0.0938	c1 = 0.1408	c1 = 0.1877	c1 = 0.2347	c1 = 0.2816	c1 = 0.3286	c1 = 0.3755	c1 = 0.4225	c1 = 0.4694
298.15 K	1097.23 ± 2.5	1098.39 ± 2.5	1098.59 ± 2.5	1099.36 ± 2.4	1100.14 ± 2.4	1100.75 ± 2.4	1101.46 ± 2.4	1102.02 ± 2.3	1102.75 ± 2.3	1102.8 ± 2.3
303.15 K	1093.69 ± 2.5	1094.33 ± 2.5	1094.95 ± 2.5	1096.03 ± 2.5	1097.27 ± 2.4	1098.29 ± 2.4	1098.91 ± 2.4	1099.88 ± 2.3	1100.55 ± 2.3	1100.96 ± 2.3
308.15 K	1089.07 ± 2.5	1090.08 ± 2.5	1091.61 ± 2.5	1091.83 ± 2.5	1093.14 ± 2.5	1094.08 ± 2.4	1095.64 ± 2.4	1096.52 ± 2.4	1097.67 ± 2.3	1098.81 ± 2.3
313.15 K	1084.72 ± 2.6	1086.26 ± 2.5	1086.93 ± 2.5	1087.56 ± 2.5	1088.34 ± 2.5	1089.59 ± 2.4	1090.74 ± 2.4	1091.97 ± 2.4	1093.11 ± 2.4	1094.24 ± 2.4
318.15 K	1078.8 ± 2.6	1080.58 ± 2.6	1081.55 ± 2.5	1082.82 ± 2.5	1083.33 ± 2.5	1084.33 ± 2.4	1085.8 ± 2.4	1086.86 ± 2.4	1087.92 ± 2.4	1089.02 ± 2.4

O=C(c1ccccc1)N(O)c1ccccc1 [N-phenylbenzohydroxamic acid]
Settings	Normal melting temperature [°C]
[1], Crystal, visual observation	121.00 ± 1
